Measured values taken from publication PMC11300601, “Zurletrectinib is a next-generation TRK inhibitor with strong intracranial activity against NTRK fusion-positive tumours with on-target resistance to first-generation agents” (British Journal of Cancer, 2024).
pIC50: −log10 of the molar value. Read-outs that look alike come from different tables or passages of the source.

Key:
IRC-I-XL = test: CellTiter-Glo cell viability, IRC-I-XL primary CRC cell line (LMNA-NTRK1); assay type: cell-based, human; conditions: LMNA-NTRK1 fusion, 72 h, read-out: IC50 against IRC-I-XL cell line
Source text: (§1) NTRK fusion-positive colorectal cancer cell lines IRC, Kor1, and KM12 were utilized. The IRC and the KM12 cell lines were obtained from Dr. Bardelli and cultured according to the described protocols. The Kor1 cell line was obtained from Lee et al. and cultured on laminin pre-treated plates in RPMI media supplemented with 10% Fetal Bovine Serum (FBS). All cell lines were authenticated by STR and periodically screened for the presence of mycoplasma. For the mutant models, two human-derived colorectal cancer cell lines (IRC) and two mouse-derived glioma models (NLS) were used. […] Sequencing of the double mutant cell line was performed using MSK-IMPACT [25]. IRC primary cell lines were cultured with DMEM/F12 50:50 Mix (Corning) supplemented with 10% FBS. NLS Bcan-Ntrk1 Trka G598R and Bcan-Ntrk1 Trka G670C single mutants as well as double mutants NLS Bcan-Ntrk1 Trka G598R/G670A and NLS Bcan-Ntrk1 Trka G598R/G670C isogenic models were established using CRISPR/Cas9 to knock-in TRKA solvent-front and xDFG mutations into tumor cells derived from a Bcan-Ntrk1-driven glioma mouse model. Trka G598R is the mouse ortholog to human TRKA G595R while Trka G670A and Trka G670C are the mouse ortholog to human TRKA G667A and TRKA G667C, respectively. Mouse p53 ^−/^− Bcan-Ntrk1 glioma cells were plated on laminin-coated plates and cultured with Neurocult Stem Cell Basal Media with Proliferation Supplements (Stem Cell Technologies). […]
(§2) CellTiter-Glo Cell Viability Assays (Promega) and crystal violet clonogenic assays were performed on primary NTRK fusion-positive colorectal cancer cell lines, mouse Ba/F3 cell lines and isogenic mouse glioma cell lines. […] Absorbance was read at 490 nm in accordance with Promega’s protocol. […]
(§3) Statistical analyses were conducted using GraphPad Prism 9 (GraphPad Software Inc.). […] Measurements were assessed for normal distribution and homogeneity of variance using appropriate tests and were analyzed using analysis of variance or T-Tests, and nonparametric tests were used for non-normal distributed data. […]

Ba/F3 LMNA-NTRK1-G667S = test: Ba/F3 cell viability (anti-proliferative activity); assay type: cell-based, mouse
Kor1 = test: CellTiter-Glo cell viability, Kor1 primary CRC cell line (TPM3-NTRK1); assay type: cell-based, human; conditions: TPM3-NTRK1 fusion, 72 h, read-out: IC50 against Kor1 cell line
Source text: as §1, §2, §3

TRKA G595R = target: T1, TRKA G595R (Homo sapiens, UniProt P04629, G595R); test: In vitro HTRF kinase assay, recombinant TRKA G595R; assay type: biochemical
T1 construct: purchased SignalChem Biotech Inc (Richmond, BC, Canada)
T1 sequence (P04629 33-796 G595R): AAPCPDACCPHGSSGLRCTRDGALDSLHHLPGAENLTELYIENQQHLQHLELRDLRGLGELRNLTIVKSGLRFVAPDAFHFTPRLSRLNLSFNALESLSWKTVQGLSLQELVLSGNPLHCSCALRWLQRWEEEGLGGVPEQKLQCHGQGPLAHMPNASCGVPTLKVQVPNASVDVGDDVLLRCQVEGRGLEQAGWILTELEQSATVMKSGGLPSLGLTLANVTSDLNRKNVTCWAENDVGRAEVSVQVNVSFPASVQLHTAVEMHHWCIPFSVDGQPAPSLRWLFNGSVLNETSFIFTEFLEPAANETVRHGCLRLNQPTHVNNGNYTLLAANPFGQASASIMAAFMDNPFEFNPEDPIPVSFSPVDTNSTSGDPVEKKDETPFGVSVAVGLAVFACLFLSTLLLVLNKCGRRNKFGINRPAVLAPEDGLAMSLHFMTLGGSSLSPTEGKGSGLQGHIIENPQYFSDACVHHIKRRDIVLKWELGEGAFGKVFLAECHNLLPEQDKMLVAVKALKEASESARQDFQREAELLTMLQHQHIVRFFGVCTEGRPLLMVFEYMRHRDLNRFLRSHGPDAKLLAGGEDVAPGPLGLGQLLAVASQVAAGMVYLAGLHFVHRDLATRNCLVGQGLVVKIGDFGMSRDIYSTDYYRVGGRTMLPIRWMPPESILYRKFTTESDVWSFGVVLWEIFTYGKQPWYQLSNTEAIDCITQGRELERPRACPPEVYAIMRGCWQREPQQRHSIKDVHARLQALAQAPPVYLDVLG
Method: Recombinant kinases were purchased from SignalChem Biotech Inc (Richmond, BC, Canada). In vitro kinase assays were performed following the optimization of the HTRF Kinase Assay (Cisbio). […] ATP concentrations ranged from 1 to 10 µM based on internal optimization.

[1] = system: IRC LMNA-NTRK1 TRKA G595R; test: Proliferation, clonogenic and western blot assays, primary IRC cell line with TRKA G595R; assay type: cell-based; conditions: primary human NTRK fusion-positive cell line with TRKA G595R
Source text: as §1, with “model.” for “model. Trka G598R is the mouse ortholog to human TRKA G595R while Trka G670A and Trka G670C are the mouse ortholog to human TRKA G667A and TRKA G667C, respectively. Mouse p53 ^−/^− Bcan-Ntrk1 glioma cells were plated on laminin-coated plates and cultured with Neurocult Stem Cell Basal Media with Proliferation Supplements (Stem Cell Technologies).”
as §2

[2] = system: Bcan-Ntrk1 Trka G598R/G670A; test: Proliferation and clonogenic assays, mouse glioma cell line; assay type: cell-based
Source text: (§4) NTRK fusion-positive colorectal cancer cell lines IRC, Kor1, and KM12 were utilized. The IRC and the KM12 cell lines were obtained from Dr. Bardelli and cultured according to the described protocols. The Kor1 cell line was obtained from Lee et al. and cultured on laminin pre-treated plates in RPMI media supplemented with 10% Fetal Bovine Serum (FBS). All cell lines were authenticated by STR and periodically screened for the presence of mycoplasma. For the mutant models, two human-derived colorectal cancer cell lines (IRC) and two mouse-derived glioma models (NLS) were used. […] Sequencing of the double mutant cell line was performed using MSK-IMPACT [25]. IRC primary cell lines were cultured with DMEM/F12 50:50 Mix (Corning) supplemented with 10% FBS. NLS Bcan-Ntrk1 Trka G598R and Bcan-Ntrk1 Trka G670C single mutants as well as double mutants NLS Bcan-Ntrk1 Trka G598R/G670A and NLS Bcan-Ntrk1 Trka G598R/G670C isogenic models were established using CRISPR/Cas9 to knock-in TRKA solvent-front and xDFG mutations into tumor cells derived from a Bcan-Ntrk1-driven glioma mouse model. Trka G598R is the mouse ortholog to human TRKA G595R while Trka G670A and Trka G670C are the mouse ortholog to human TRKA G667A and TRKA G667C, respectively. Mouse p53 ^−/^− Bcan-Ntrk1 glioma cells were plated on laminin-coated plates and cultured with Neurocult Stem Cell Basal Media with Proliferation Supplements (Stem Cell Technologies). Ba/F3 cell lines stably expressing WT and mutant versions (i.e. G595R, G667C/A, V573M, F589L, F633L, F617L, G623R/E, G639R, G696A/C, G709C, V608D/M) of human TRKA, TRKB or TRKC were generated using either lentiviral transduction or standard transfection methods by a contract research organization (Kyinno, Beijing, China).
(§5) CellTiter-Glo Cell Viability Assays (Promega) and crystal violet clonogenic assays were performed on primary NTRK fusion-positive colorectal cancer cell lines, mouse Ba/F3 cell lines and isogenic mouse glioma cell lines. For the CellTiter-Glo assays, three biological replicates were performed, with each condition being assayed in triplicate determinations. Cells were seeded in a 96-well plate in the afternoon at optimal density. […] Plates were removed from the incubator 72 h later and CellTiter-Glo reagent was added. Absorbance was read at 490 nm in accordance with Promega’s protocol. Data is presented as a survival percentage on the y-axis (mean ± STDEV) normalized to the control DMSO-treated cells deemed 100% viable. Drug concentrations on the x-axis are represented as a base 10 logarithm (LOG). For the crystal violet assays, cells were seeded in a 24-well plate at optimal densities in the afternoon. […]

Bcan-Ntrk1 Trka G598R = test: as above; assay type: cell-based
Source text: as §4, §5

Bcan-Ntrk1 Trka G670C = test: as above; assay type: cell-based
Source text: as §4
as §5, with “(LOG).” for “(LOG). For the crystal violet assays, cells were seeded in a 24-well plate at optimal densities in the afternoon.”
(§6) I n vi t r o kinase assay, crystal violet, and western blot quantifications
(§7) In vitro kinase assay quantification was performed using GraphPad Prism 9.

[3] = system: Bcan-Ntrk1 Trka G598R/G670C; test: as above; assay type: cell-based
Source text: as §4
as §5, with “(LOG).” for “(LOG). For the crystal violet assays, cells were seeded in a 24-well plate at optimal densities in the afternoon.”
as §6, §7

| Compound | pIC50 (IRC-I-XL; Homo sapiens) | pIC50 (Ba/F3 LMNA-NTRK1-G667S; Mus musculus, BaF3) | pIC50 (Kor1; Homo sapiens) | Activity against TRKA G595R recombinant kinase (TRKA G595R) | Inhibition of growth and TRKA-mediated signaling [1] | Activity against mouse glioma cell line [2] | Activity against mouse glioma cell line (Bcan-Ntrk1 Trka G598R) | Activity against mouse glioma cell line (Bcan-Ntrk1 Trka G670C) | Activity against mouse glioma cell line [3] | pIC50 (IRC-I-XL) | pIC50 (Ba/F3 LMNA-NTRK1-G667S) | pIC50 (Kor1) |
| --- | --- | --- | --- | --- | --- | --- | --- | --- | --- | --- | --- | --- |
| O=C(Nc1cnn2ccc(N3CCC[C@@H]3c3cc(F)ccc3F)nc12)N1CC[C@H](O)C1 [Larotrectinib, larotrectinib] | 7.87 | 5.50 | 7.61 | – | – | – | – | – | – | – | – | – |
| C[C@@H]1CCc2ncc(F)cc2[C@H]2CCCN2c2ccn3ncc(c3n2)C(=O)N1 [Selitrectinib, selitrectinib] | 8.34 | 6.27 | 7.89 | active in the low nanomolar range | able to inhibit the growth and TRKA-mediated signaling | highly active | highly active | less so | less so | – | – | – |
| zurletrectinib | – | – | – | active in the low nanomolar range | able to inhibit the growth and TRKA-mediated signaling | highly active | highly active | less so | less so | 9.33 | 6.71 | 8.14 |
